Read-outs that look alike come from different tables or passages of the source.
Tests used:
Format in all cases: cell-based, human
[1] = test system: Colon cancer cell lines; test: NCI anticancer screen, SRB assay, panel summary; settings: for GI50: Homo sapiens
Experimental: (§1) Some of biological activity studies were carried out at the National Cancer Institute (NCI), Maryland, USA.
(§2) The compounds were evaluated for anticancer activity against fifty three human cancer cells derived from nine cancer types (leukemia cell line, non-small-cell lung cell line, colon cell line, CNS cell line, melanoma cell line, ovarian cell line, prostate cell line, and breast cancer cell line) as shown in Table 1. For each compound, dose response curves for each cell line were measured at a minimum of five concentrations at 10 fold dilutions. A protocol of 48 h continuous drug exposure was used and a sulforhodamine B (SRB) protein assay was used to estimate cell viability or growth.

[2] = test system: Ovarian cancer cell lines; test: NCI anticancer screen, SRB assay, panel summary; settings: Homo sapiens
Experimental: as §1, §2

[3] = test system: Breast cancer cell lines; test: NCI anticancer screen, SRB assay, panel summary; settings: Homo sapiens
Experimental: as §1, §2

[4] = test system: Non-small cell lung cancer cell lines; test: NCI anticancer screen, SRB assay, panel summary; settings: Homo sapiens
Experimental: as §1, §2

[5] = test system: Melanoma cancer cell lines; test: NCI anticancer screen, SRB assay, panel summary; settings: for GI50: Homo sapiens
Experimental: as §1, §2

[6] = test system: Prostate cancer cell lines; test: NCI anticancer screen, SRB assay, panel summary
Experimental: as §1, §2

[7] = test system: Leukemia cancer cell lines; test: NCI anticancer screen, SRB assay, panel summary; settings: Homo sapiens
Experimental: as §1, §2

[8] = test system: CNS cancer cell lines; test: NCI anticancer screen, SRB assay, panel summary; settings: for GI50: Homo sapiens
Experimental: as §1, §2

[9] = test system: Renal cancer cell lines; test: NCI anticancer screen, SRB assay, panel summary; settings: Homo sapiens
Experimental: as §1, §2

[10] = test system: TD-47D (breast); test: NCI anticancer screen, SRB assay, 48 h; settings: Homo sapiens
Experimental: as §1, §2

[11] = test system: SN12C (renal); test: NCI anticancer screen, SRB assay, 48 h; settings: Homo sapiens, SN12C
Experimental: as §1, §2

[12] = test system: SNB-75 (CNS); test: NCI anticancer screen, SRB assay, 48 h; settings: Homo sapiens
Experimental: as §1, §2

[13] = test system: SK-MEL-2 (melanoma); test: NCI anticancer screen, SRB assay, 48 h; settings: Homo sapiens
Experimental: as §1, §2

[14] = test system: MDA-MB-231/ATCC (breast); test: NCI anticancer screen, SRB assay, 48 h; settings: Homo sapiens
Experimental: as §1, §2

[15] = test system: NCI-H460 (non-small cell lung); test: NCI anticancer screen, SRB assay, 48 h; settings: Homo sapiens
Experimental: as §1, §2

[16] = test system: ACHN (renal); test: NCI anticancer screen, SRB assay, 48 h; settings: Homo sapiens
Experimental: as §1, §2

[17] = test system: COLO 205 (colon); test: NCI anticancer screen, SRB assay, 48 h; settings: Homo sapiens, COLO 205
Experimental: as §1, §2

[18] = test system: LOX IMVI (melanoma); test: NCI anticancer screen, SRB assay, 48 h; settings: Homo sapiens
Experimental: as §1, §2

[19] = test system: HT29 (colon); test: NCI anticancer screen, SRB assay, 48 h; settings: Homo sapiens
Experimental: as §1, §2

[20] = test system: KM12 (colon); test: NCI anticancer screen, SRB assay, 48 h; settings: Homo sapiens
Experimental: as §1, §2

[21] = test system: HS 578T (breast); test: NCI anticancer screen, SRB assay, 48 h; settings: Homo sapiens
Experimental: as §1, §2

[22] = test system: HCC-2998 (colon); test: NCI anticancer screen, SRB assay, 48 h; settings: Homo sapiens
Experimental: as §1, §2

[23] = test system: PC-3 (prostate); test: NCI anticancer screen, SRB assay, 48 h; settings: Homo sapiens
Experimental: as §1, §2

[24] = test system: HOP-92 (non-small cell lung); test: NCI anticancer screen, SRB assay, 48 h; settings: Homo sapiens
Experimental: as §1, §2

[25] = test system: OVCAR-3 (ovarian); test: NCI anticancer screen, SRB assay, 48 h; settings: Homo sapiens
Experimental: as §1, §2

[26] = test system: BT-549 (breast); test: NCI anticancer screen, SRB assay, 48 h; settings: Homo sapiens
Experimental: as §1, §2

[27] = test system: SK-MEL-28 (melanoma); test: NCI anticancer screen, SRB assay, 48 h; settings: Homo sapiens
Experimental: as §1, §2

[28] = test system: SF-539 (CNS); test: NCI anticancer screen, SRB assay, 48 h; settings: Homo sapiens
Experimental: as §1, §2

[29] = test system: NCI-H23 (non-small cell lung); test: NCI anticancer screen, SRB assay, 48 h; settings: Homo sapiens
Experimental: as §1, §2

[30] = test system: SF-295 (CNS); test: NCI anticancer screen, SRB assay, 48 h; settings: Homo sapiens
Experimental: as §1, §2

[31] = test system: A549/ATCC (non-small cell lung); test: NCI anticancer screen, SRB assay, 48 h; settings: Homo sapiens
Experimental: as §1, §2

[32] = test system: M14 (melanoma); test: NCI anticancer screen, SRB assay, 48 h; settings: Homo sapiens
Experimental: as §1, §2

[33] = 48 h exposure, SRB, read-out: GI50
[34] = read-out: pGI50 (-log of molar concentration causing 50% inhibition of net cell growth) (converted)

## O=C(/C=C/c1cccc(O)c1)c1cccc(-n2cc(-c3ccc4ccccc4c3)[nH]c2=O)c1 [12b, 1-3-[(E)-3-(3-hydroxyphenyl)-2-propenoyl]phenyl-4-(2-naphthyl)-2,3-dihydro-1H-2-imidazolone]
[1]; Colon panel, log of concentration leading to 50% net cell death
  mean graph midpoint (MG_MID) of Log10 LC50: 5.08
[1]; Colon panel, log of concentration in mol/L causing 50% inhibition of net cell growth, read-out: mean graph midpoint (MG_MID) of Log10 GI50 (converted)
  GI50: 1020 nM
[1]; seven colon cancer cell lines, exposure at least 48 hrs, read-out: GI50, range over the panel
  GI50: 220 to 2130 nM
[2]; Ovarian panel, log of concentration in mol/L causing 50% inhibition of net cell growth, read-out: mean graph midpoint (MG_MID) of Log10 GI50 (converted)
  GI50: 1820 nM
[2]; Ovarian panel, log of concentration leading to 50% net cell death, read-out: mean graph midpoint (MG_MID) of Log10 LC50 (converted)
  LC50: 25700 nM
[2]; six ovarian cancer cell lines, exposure at least 48 hrs, read-out: GI50, range over the panel
  GI50: 1330 to 2330 nM
[3]; Breast panel, log of concentration in mol/L causing 50% inhibition of net cell growth, read-out: mean graph midpoint (MG_MID) of Log10 GI50 (converted)
  GI50: 1290 nM
[3]; Breast panel, log of concentration leading to 50% net cell death, read-out: mean graph midpoint (MG_MID) of Log10 LC50 (converted)
  LC50: 31600 nM
[3]; five breast cancer cell lines, exposure at least 48 hrs, read-out: GI50, range over the panel
  GI50: 470 to 2010 nM
[4]; Non-small cell lung panel, log of concentration in mol/L causing 50% inhibition of net cell growth, read-out: mean graph midpoint (MG_MID) of Log10 GI50 (converted)
  GI50: 1740 nM
[4]; Non-small cell lung panel, log of concentration leading to 50% net cell death, read-out: mean graph midpoint (MG_MID) of Log10 LC50 (converted)
  LC50: 20000 nM
[4]; nine non-small cell lung cancer cell lines, exposure at least 48 hrs, read-out: GI50, range over the panel
  GI50: 510 to 3380 nM
[5]; Melanoma panel, log of concentration in mol/L causing 50% inhibition of net cell growth, read-out: mean graph midpoint (MG_MID) of Log10 GI50 (converted)
  GI50: 1950 nM
[5]; nine melanoma cancer cell lines, exposure at least 48 hrs, read-out: GI50, range over the panel
  GI50: 850 to 4130 nM
[5]; Melanoma panel, log of concentration leading to 50% net cell death
  mean graph midpoint (MG_MID) of Log10 LC50: 4.62
[6]; Homo sapiens, log of concentration in mol/L causing 50% inhibition of net cell growth, read-out: mean graph midpoint (MG_MID) of Log10 GI50 (converted)
  GI50: 1860 nM
[6]; Homo sapiens, log of concentration leading to 50% net cell death, read-out: mean graph midpoint (MG_MID) of Log10 LC50 (converted)
  LC50: 79400 nM
[6]; log of concentration resulting in total inhibition of net cell growth
  mean graph midpoint (MG_MID) of Log10 TGI: 5.10
[7]; Leukemia panel, log of concentration in mol/L causing 50% inhibition of net cell growth, read-out: mean graph midpoint (MG_MID) of Log10 GI50 (converted)
  GI50: 1550 nM
[7]; Leukemia panel, log of concentration leading to 50% net cell death, read-out: mean graph midpoint (MG_MID) of Log10 LC50 (converted)
  LC50: ≥ 100000 nM
[7]; two leukemia cancer cell lines (RPMI-8226 and K-562), exposure at least 48 hrs, read-out: GI50, range over the panel
  GI50: 1430 to 1670 nM
[8]; CNS panel, log of concentration leading to 50% net cell death
  mean graph midpoint (MG_MID) of Log10 LC50: 5.04
[8]; CNS panel, log of concentration in mol/L causing 50% inhibition of net cell growth, read-out: mean graph midpoint (MG_MID) of Log10 GI50 (converted)
  GI50: 1480 nM
[8]; six CNS cancer cell lines, exposure at least 48 hrs, read-out: GI50, range over the panel
  GI50: 1090 to 1880 nM
[9]; Renal panel, log of concentration in mol/L causing 50% inhibition of net cell growth, read-out: mean graph midpoint (MG_MID) of Log10 GI50 (converted)
  GI50: 8910 nM
[9]; Renal panel, log of concentration leading to 50% net cell death, read-out: mean graph midpoint (MG_MID) of Log10 LC50 (converted)
  LC50: 10200 nM
[9]; eight renal cancer cell lines, exposure at least 48 hrs, read-out: GI50, range over the panel
  GI50: 1260 to 3450 nM
[10]; [33]
  GI50: 1110 nM
[10]; [34]
  GI50: 1120 nM
[11]; SN 12C, read-out: pGI50 (-log of molar concentration causing 50% inhibition of net cell growth) (converted)
  GI50: 1450 nM
[11]; [33]
  GI50: 1440 nM
[12]; [33]
  GI50: 1880 nM
[12]; [34]
  GI50: 1860 nM
[13]; [33]
  GI50: 2310 nM
[13]; [34]
  GI50: 2290 nM
[14]; [33]
  GI50: 1660 nM
[14]; [34]
  GI50: 1660 nM
[15]; [33]
  GI50: 1670 nM
[15]; [34]
  GI50: 1660 nM
[16]; [33]
  GI50: 1570 nM
[16]; [34]
  GI50: 1580 nM
[17]; COLO205, read-out: pGI50 (-log of molar concentration causing 50% inhibition of net cell growth) (converted)
  GI50: 2090 nM
[17]; [33]
  GI50: 2090 nM
[18]; [33]
  GI50: 850 nM
[18]; [34]
  GI50: 851 nM
[19]; HT-29, 48 h exposure, SRB, read-out: GI50
  GI50: 1540 nM
[19]; HT-29, read-out: pGI50 (-log of molar concentration causing 50% inhibition of net cell growth) (converted)
  GI50: 1550 nM
[20]; [33]
  GI50: 1210 nM
[20]; [34]
  GI50: 1200 nM
[21]; [33]
  GI50: 2010 nM
[21]; [34]
  GI50: 2000 nM
[22]; [33]
  GI50: 2130 nM
[22]; [34]
  GI50: 2140 nM
[23]; PC-3, read-out: pGI50 (-log of molar concentration causing 50% inhibition of net cell growth) (converted)
  GI50: 1860 nM
[23]; one prostate cancer cell line (PC-3), exposure at least 48 hrs, read-out: GI50
  GI50: 1850 nM
[24]; [33]
  GI50: 510 nM
[24]; [34]
  GI50: 513 nM
[25]; [33]
  GI50: 1330 nM
[25]; [34]
  GI50: 1320 nM
[26]; [33]
  GI50: 1890 nM
[26]; [34]
  GI50: 1910 nM
[27]; [33]
  GI50: 3790 nM
[27]; [34]
  GI50: 3800 nM
[28]; [33]
  GI50: 1550 nM
[28]; [34]
  GI50: 1550 nM
[29]; [33]
  GI50: 1520 nM
[29]; [34]
  GI50: 1510 nM
[30]; [33]
  GI50: 1440 nM
[30]; [34]
  GI50: 1450 nM
[31]; [33]
  GI50: 3380 nM
[31]; [34]
  GI50: 3390 nM
[32]; [33]
  GI50: 1490 nM
[32]; [34]
  GI50: 1480 nM

Source: patent US8889874B2, “Imidazolone-chalcone derivatives as potential anticancer agent and process for the preparation thereof” (Council of Scientific and Industrial Research, priority 2010, dated 2014)
